Source: ChEMBL document CHEMBL1150590, “Cytotoxic and antifungal triterpene glycosides from the Patagonian sea cucumber Hemoiedema spectabilis” (J Nat Prod, 2002)

Assays:
Artemia salina = experiment: Toxicity against Artemia salina; type: organism-based; conditions: in vivo
Cladosporium cucumerinum [1] = experiment: Growth inhibition of Cladosporium cucumerinum after 2 to 3 days by bioautographic assay; type: functional, organism-based
Cladosporium cucumerinum [2] = experiment: Antifungal activity against Cladosporium cucumerinum at 1.5 to 50 ug/spot after 2 to 3 days by bioautographic assay; type: functional

Row | SMILES | LC50 (Artemia salina) [ppm] | Activity (Cladosporium cucumerinum [1]) | inhibition zone (IZ) (Cladosporium cucumerinum [2]) [mm]
1 | C=C(C)CCC[C@]1(C)OC(=O)[C@]23CC=C4[C@@H](CC[C@H]5C(C)(C)[C@@H](O[C@@H]6OC[C@@H](O)[C@H](O)[C@H]6O[C@@H]6O[C@H](C)[C@@H](O[C@@H]7O[C@H](CO)[C@@H](O)[C@H](O[C@@H]8O[C@H](CO)[C@@H](O)[C@H](OC)[C@H]8O)[C@H]7O)[C@H](O)[C@H]6O)CC[C@]45C)[C@]2(C)CC(=O)[C@@H]31 [DESULFATED HEMOIEDEMOSIDE A] | 424.5 | Dose-dependent effect | –
2 | C=C(C)CCC[C@]1(C)OC(=O)[C@]23CC=C4[C@@H](CC[C@H]5C(C)(C)[C@@H](O[C@@H]6OC[C@@H](OS(=O)(=O)[O-])[C@H](O)[C@H]6O[C@@H]6O[C@H](C)[C@@H](O[C@@H]7O[C@H](COS(=O)(=O)[O-])[C@@H](O)[C@H](O[C@@H]8O[C@H](CO)[C@@H](O)[C@H](OC)[C@H]8O)[C@H]7O)[C@H](O)[C@H]6O)CC[C@]45C)[C@]2(C)CC(=O)[C@@H]31.[Na+].[Na+] [HEMOIEDEMOSIDE A] | 18.7 | Dose-dependent effect | 8
3 | CO[C@@H]1[C@@H](O)[C@H](O[C@@H]2[C@@H](O)[C@H](O[C@H]3[C@H](O)[C@@H](O)[C@H](O[C@H]4[C@H](O[C@H]5CC[C@]6(C)[C@@H]7C[C@H](O)[C@]89C(=O)O[C@@](C)(CCCC(C)C)[C@@]8(O)CC[C@@]9(C)C7=CC[C@H]6C5(C)C)OC[C@@H](OS(=O)(=O)[O-])[C@@H]4O)O[C@@H]3C)O[C@H](COS(=O)(=O)[O-])[C@H]2O)O[C@H](CO)[C@H]1O.[Na+].[Na+] [PATAGONICOSIDE A] | – | – | 8
